What all share (type): cell-based, mouse
Assay [1] deals with CD11c^+ microglia of 9-mo old OPN-KO.5XFAD mice. Kind of assay: In vitro microglia assay: impact of OPN-αVβ3 interaction on CD11c^+ microglial TNF-α production. Conditions: 9-mo old OPN-KO.5XFAD microglia, Cilengitide 10 μM 1 h pre-incubation, then rmOPN 12.5 pg/ml, 24 h. Here is the method: (a) Representative flow cytometry plots and quantification of TREM2 mean fluorescence intensity (MFI) in CD11c^+ OPN^+ and CD11c^+ OPN^− microglial subsets of 9-mo old 5XFAD mice. […] Statistical analysis was performed by two-tailed Student's t test. (b) Representative flow cytometry plots of TNF-α and TREM2 expression in CD11c^− OPN^− microglial subset of 9-mo old 5XFAD mice. CD11c^− OPN^− microglia expressed low level of TNF-α and negligible level of TREM2. The plots were representative results from 3 independent experiments. (c) Microglial expression of canonical OPN receptors in 5XFAD mice at different stages of disease. […] The histogram of CD44 and the contour plot of αVβ3 and αVβ5 were the representative results from 3 independent experiments. (d) The impact of OPN-αVβ3 interaction on CD11c^+ microglial production of TNF-α. […] (e) Representative flow cytometry plots and quantification of TREM2 MFI in CD11c^+ microglia of 9-mo old 5XFAD and OPN-KO.5XFAD mice (n=3). […] Two-tailed Student's t test was performed for statistical analysis.
To test the impact of OPN-αVβ3 interaction on CD11c^+ microglial pro-inflammatory response, microglia were enriched by anti-CD11b microbeads (purity >95%, Miltenyi) from 9-mo old OPN-KO.5XFAD mice and were seeded into 12-well plates at 3×10^5 cells/well in conventional microglia culture medium (DMEM-F12 with 10% fetal bovine serum+1% penicillin/streptomycin+10 ng/ml recombinant mouse M-CSF). Microglia were pre-incubated with a selective αVβ3 inhibitor, Cilengitide (10 μM) for 1 h followed by the addition of 12.5 pg/ml recombinant mouse OPN (rmOPN) and cultured for 24 h before analysis of CD11c^+ microglial expression of TNF-α by flow cytometry.

Assay [2] concerns IL-1β. Kind of assay: Microglial inflammasome activation: IL-1β production (ELISA of culture medium). Conditions: LPS 100 ng/ml 3 h + Aβ1-42 fibrils 10 μM overnight; microglia from 9-mo 5XFAD and OPN-KO.5XFAD mice; rmOPN 12.5 pg/ml, Cilengitide 10 μM. Here is the method:
(§1) Intracellular Caspase-1 activity was measured by bioluminescent assay of microglia from 9-month-old 5XFAD mice. Detection of the specificity of Caspase-1 activity was confirmed by a selective Caspase-1 inhibitor (Ac-YVAD-CHO (SEQ ID NO: 13), 1 μM). Bar plots are representative results from three independent experiments. […] Activation of Caspase-1 and IL1β by provision of rmOPN was blocked following provision of αVβ3 inhibitor to microglia from 9-mo old 5XFAD and OPN-KO.5XFAD mice (n=3). ****p<0.0001, ***p<0.001, **p<0.01, *p<0.05, ns: not significant by one-way ANOVA with Bonferroni's multiple comparisons test. U.D. undetectable.
(§2) In these studies, microglia isolated from 9-mo old 5XFAD and OPN-KO.5XFAD mice were seeded into 96-well plates at 6×10^4 cells/well in conventional microglia culture medium (DMEM-F12 with 10% fetal bovine serum+1% penicillin/streptomycin+10 ng/ml recombinant mouse M-CSF). […] Microglial intracellular Caspase-1 activity was analyzed by the bioluminescent Caspase-Glo® 1 Inflammasome Assay Kit (Promega) per the manufacturer's instruction. […] Culture medium was collected for quantitative determination of microglial […] DuoSet ELISA kit (R&D Systems) according to the manufacturer's instructions.

Assay [3] has as its system Caspase-1. Kind of assay: Microglial inflammasome activation: intracellular Caspase-1 activity (bioluminescent Caspase-Glo 1 assay). Conditions: LPS 100 ng/ml 3 h + Aβ1-42 fibrils 10 μM overnight; microglia from 9-mo 5XFAD and OPN-KO.5XFAD mice; rmOPN 12.5 pg/ml, Cilengitide 10 μM. Here is the method:
as §1, §2

For assay [4], the target named is CD11c^+αVβ3^+ microglia. Kind of assay: Ki-67 and TNF-α expression in microglia of 9-mo old WT mice incubated with rmOPN or αVβ3 inhibitor (flow cytometry). Conditions: 9-mo old WT mice microglia, 24 h with or without 12.5 μg/ml rmOPN or 10 μM cilengitide. Here is the method:
(A) Microglia isolated from P5 and 9-mo old WT, OPN-KO and OPN-i-KI mice were incubated×1 h with […] pHrodo Green-labeled synaptosomes per 1×10^5 cells followed by flow cytometry analysis of CD11c^+ microglial engulfment of synaptosomes. CD11c^+ microglia from P5, but not 9-mo old WT mice, were highly phagocytic for engulfing synaptosomes in vitro. […] (C) CD11c^+ microglia expressed high levels of proliferation marker Ki-67 early in development (P5). OPN-s, but not OPN-i deficiency decreased Ki-67 expression in CD11c^+ microglia (n=3). *p<0.05 by one-way ANOVA with Bonferroni's multiple comparisons test. […] (E) Microglia isolated from 9-mo old WT mice were incubated×24 h with or without 12.5 μg/ml recombinant mouse OPN (rmOPN) or 10 μM αVβ3 inhibitor (cilengitide) followed by flow cytometry analysis of proliferation marker Ki-67. […] (G) Microglia isolated from 9-mo old WT mice were incubated×24 h with or without 12.5 μg/ml recombinant mouse OPN (rmOPN) or 10 μM αVβ3 inhibitor (cilengitide) followed by flow cytometry analysis of TNF-α expression. […] Data are shown as mean±s.e.m.
Microglial staining for flow cytometry analysis. Microglia were stained with Ghost dye Violet 510 (1:1000, Tonbo Biosciences) to exclude dead cells followed by Fc receptor blocking using CD16/CD32 antibody (1:100, BD Biosciences) to avoid non-specific staining. Appropriate microglial surface markers were used for staining, including anti-CD11b (1:100 Biolegend), anti-CD45 (1:100 Biolegend), anti-CD11c (1:50 Biolegend), anti-CD36 (1:100, Biolegend), anti-CD209a (1:100, Biolegend), anti-αV integrin (1:50, Biolegend), anti-β3 integrin (1:50, Biolegend), anti-CD86 (1:100, Biolegend), and anti-MHC II (1:100, Biolegend), followed by fixation and permeabilization for subsequent intracellular staining with anti-OPN (1:10, R&D Systems), anti-TNF-α (1:50, Biolegend) and intranuclear staining with anti-Ki-67 (1:100, Biolegend).
In general terms: Flow cytometry measures light scatter and fluorescence of single cells or particles in a stream.

Entries after “also recorded” stand apart in the source; their conditions may differ.

The results in this text go back to US20250381277A1, “COMPOSITIONS AND METHODS FOR TREATMENT OF NEUROLOGICAL DISORDERS” (Dana-Farber Cancer Institute, Inc., priority 2022, published 2025).

Consider `CC(C)[C@H]1C(=O)N[C@@H](CCCN=C(N)N)C(=O)NCC(=O)N[C@@H](CC(=O)O)C(=O)N[C@H](Cc2ccccc2)C(=O)N1C` [Cilengitide], for which the “TNF-α production by CD11c^+ microglia” value in assay [1] was “abolished”; in assay [1] (listed as αVβ3 inhibitor), “fully abrogated”. The “microglial IL-1β production” value in assay [2] was “blocked”. Moreover, the “microglial intracellular Caspase-1 activity” value in assay [3] is listed as “blocked”. For the same molecule, the “Ki-67 expression in CD11c^+αVβ3^+ microglia” value in assay [4] is “markedly reduced; also recorded: fully abrogated”. Moreover, the “TNF-α expression in CD11c^+αVβ3^+ microglia” value in assay [4] is reported as “fully abolished”.

For the molecule “rmOPN: recombinant mouse OPN (osteopontin)”, the “TNF-α production by CD11c^+ microglia” value in assay [1] is recorded as “induced TNF-α expression; also recorded: Upregulated TNF-α production”. Moreover, in assay [2], the “microglial IL-1β production” value was “substantially increased; also recorded: Activation”. The “microglial intracellular Caspase-1 activity” value in assay [3] is “substantially increased; also recorded: Activation”. For the same molecule, in assay [4], the “Ki-67 expression in CD11c^+αVβ3^+ microglia” value was “enhanced Ki-67 expression” and the “TNF-α expression in CD11c^+αVβ3^+ microglia” value is “Upregulation of TNF-α expression”.
